# Experimental data reported in PMC4301629 (PLoS ONE, 2015).
# Experiments:
# HEK293/EBNA cells = assay: IP accumulation (IP-One HTRF) in untransduced HEK-293/EBNA cells; assay type: cell-based
# β2-AR [1] = target: T1, β2-AR (Homo sapiens, UniProt P07550); assay: cAMP accumulation in untransduced HEK-293/EBNA cells; assay type: cell-based; details: HEK293/EBNA
# T1 construct: HEK-293/EBNA cells are known to express β2-AR endogenously; endogenous in cells; host or cells: HEK-293/EBNA (untransduced or negative-control transduced)
# T1 sequence (P07550 whole entry): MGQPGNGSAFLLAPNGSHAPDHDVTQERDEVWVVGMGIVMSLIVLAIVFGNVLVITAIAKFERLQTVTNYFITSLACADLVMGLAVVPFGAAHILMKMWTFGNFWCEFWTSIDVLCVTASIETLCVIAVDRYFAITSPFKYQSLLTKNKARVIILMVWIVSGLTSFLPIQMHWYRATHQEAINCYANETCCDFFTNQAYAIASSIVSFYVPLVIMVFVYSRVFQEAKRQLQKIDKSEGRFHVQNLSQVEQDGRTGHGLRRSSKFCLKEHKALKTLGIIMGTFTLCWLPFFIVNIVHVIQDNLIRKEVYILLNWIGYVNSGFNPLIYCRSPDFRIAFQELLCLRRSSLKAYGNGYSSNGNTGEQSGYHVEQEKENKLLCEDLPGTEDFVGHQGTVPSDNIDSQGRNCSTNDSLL
# β2-AR [2] = target: T1, β2-AR; assay: MAPK activation (AlphaScreen SureFire p-ERK) in untransduced HEK-293/EBNA cells; assay type: cell-based; details: HEK293/EBNA
# β2-AR [3] = target: T1, β2-AR; details: HEK293/EBNA; [125I-CYP] used as radioligand (footnote 1a); cited from earlier work
# β2-AR [4] = target: T1, β2-AR; details: HEK293/EBNA; read-out: EC50 Ca2+; cited from earlier work
# α1A-AR [5] = target: T2, α1A-AR (Homo sapiens, UniProt P35348); assay: LC-MS detection of IP1, IP2 and IP3 in α1A-AR_CHO stable cells; assay type: cell-based; parameters: expressed in transfected cells; details: α1A-AR CHO, Iso up to 1 mM
# T2 sequence (P35348 1-466): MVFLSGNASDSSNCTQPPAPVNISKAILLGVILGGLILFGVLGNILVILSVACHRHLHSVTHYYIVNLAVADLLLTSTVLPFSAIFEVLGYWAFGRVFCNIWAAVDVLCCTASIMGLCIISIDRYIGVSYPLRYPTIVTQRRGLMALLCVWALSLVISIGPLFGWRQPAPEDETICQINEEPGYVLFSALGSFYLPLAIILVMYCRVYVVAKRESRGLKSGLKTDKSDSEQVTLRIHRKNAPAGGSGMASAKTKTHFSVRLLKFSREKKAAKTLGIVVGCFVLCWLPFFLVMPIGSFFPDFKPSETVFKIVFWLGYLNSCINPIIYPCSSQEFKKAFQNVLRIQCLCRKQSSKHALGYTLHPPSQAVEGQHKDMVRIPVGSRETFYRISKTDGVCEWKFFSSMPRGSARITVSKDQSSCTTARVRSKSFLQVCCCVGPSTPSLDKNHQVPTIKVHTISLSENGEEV
# Procedure: (§1) After that, the medium was replaced with agonist solution in assay buffer (20 mM HEPES, 10 mM glucose, 1.8 mM CaCl2, 0.5 mM MgSO4, in HBSS 1X buffer, 50 mM LiCl) and cells were incubated at 37°C for 30 min. Stimulation was stopped by exchange of assay buffer with lysis buffer (100 μL 0.1N HCl/MeOH), and lysis proceeded for 30 min at 4°C. Cellular levels of inositol phosphates were determined using a Thermo LC-MS detection system following a published protocol. Chromatography was performed employing a BioBasic column AX (50 × 2.1 mm, Thermo). The mobile phase consisted of solvent A: 10 mM ammonium acetate, pH 6 in 30/70 acetonitrile/water, and solvent B: 1 mM ammonium acetate, pH 11 in 30/70 acetonitrile/water. A gradient solvent system was used starting with 0% solvent B, and analytes were eluted by increasing solvent B to 100% over 3 min. Each data point represents the average of triplicate determinations and each experiment was performed at least three times independently.
# IP1, IP2, and IP3 levels were determined via LC-MS. Plots are representative of three independent experiments with each data point being the average of triplicates.
# α1A-AR [6] = target: T2, α1A-AR; assay: MAPK activation (AlphaScreen SureFire p-ERK) in α1A-AR transduced HEK-293/EBNA cells; assay type: cell-based; parameters: expressed in transfected cells; host or cells: HEK-293/EBNA (baculovirus transduction, NaBu induction)
# Procedure: (§2) Prior to experiments, cells were transduced with baculovirus strains designed for transient expression of α1A-AR or aldehyde oxidase (negative control). This was performed by incubating cells with virus (MOI 100–150) for 3 to 4 h, followed by exchange into fresh serum free growth medium supplemented with 4 mM sodium butyrate (NaBu). Cells were grown for another 14 to 18 h and then examined for agonist-evoked responses in transient Ca^2+ release, IP accumulation or pERK activation assays. The surface receptor expression density was determined by flow cytometry via immunofluorescence labeling of an N-terminal HA epitope tag on the receptor and radioligand binding in partially purified membranes.
# Graphs shown reflect either pooled or representative data (see figure legends). For concentration-response analysis, results from Ca^2+ mobilization experiments were plotted as ΔF/F0 vs. agonist concentration and fit to a sigmoidal concentration-response equation using the GraphPad Prism software package. […] For radioligand binding experiments, B max values were calculated from maximum binding using the equation B max = (SB × ([…] + [L])/[L]), where SB is the specific binding expressed as fmol per mg of membrane protein, and [L] is the ligand concentration.
# α1A-AR [7] = target: T2, α1A-AR; assay: LC-MS detection of IP1, IP2 and IP3 in α1A-AR transduced HEK-293/EBNA cells; assay type: cell-based; parameters: expressed in transfected cells; host or cells: HEK-293/EBNA (baculovirus transduction, NaBu induction); details: Iso up to 10 mM
# Procedure: as §1, with “Virally transduced HEK-293/EBNA cells were resuspended in growth medium and seeded in poly-D-lysine coated 96-well black plates at a density of 100,000 cells/0.1 mL per well, Cells were allowed to attach for 2 hours at 37°C in a humidified atmosphere of 95% air and 5% CO2. After” for “After”
# α1A-AR [8] = target: T2, α1A-AR; assay: Translocation of GFP-tagged β-arrestin-1/2 in HEK293 cells expressing FLAG-α1A-AR (confocal microscopy); assay type: cell-based; parameters: expressed in transfected cells; host or cells: HEK-293/EBNA (baculovirus transduction, NaBu induction); details: HEK293, 1 μM A-61603 or 1 mM Iso
# Procedure: HEK293 cells were transiently co-transfected with FLAG-tagged α1A – AR and one of the following GFP-tagged proteins: Rab5 (Rab5 Q79L) variant, Rab11 (Rab11 S25N) variant, β-arrestin-1 or β-arrestin-2. Rab5 and Rab11 were kindly provided by Dr. Marino Zerial (Max Planck Institute of Molecular Cell Biology and Genetics, Dresden, Germany). […] After treatment, cells were fixed with freshly prepared 3.7% paraformaldehyde in PBS for 15 min at room temperature. Subsequently, cells were permeabilized with 0.1% Triton X-100 (Sigma-Aldrich) in PBS for 5 min, followed by nonspecific binding site blocking with 3% normal serum (Santa Cruz Biotechnology) in PBS for 1 h. Incubation with Alexa Fluor-568 conjugated anti-FLAG antibodies in blocking solution was done as directed by the manufacturer. Confocal microscopy was performed using a Zeiss LSM 510 META laser scanning microscope (Carl Zeiss, Inc., Thornwood, NY) equipped with a 60X objective, using the following laser wavelengths: excitation at 488 nm and emission at 505–530 nm; excitation at 543 nm and emission at 560–615 nm.
# HEK293 cells were co-transfected with FLAG-tagged α1A – AR and GFP- tagged β-arrestin-1 (left panels) or β-arrestin-2 (right panels). […] Cells were then fixed, permeabilized, stained with Alexa Fluor-568 conjugated anti-FLAG antibodies, and analyzed employing confocal microscopy.
# α1A-AR [9] = assay: Ca2+ transient response (FLIPR, fluo3) in α1A-AR transduced HEK-293/EBNA cells; assay type: cell-based; details: α1A-AR HEK-293/EBNA
# Procedure: as §2
# Cells were resuspended in Hank’s balanced salt solution (Invitrogen) supplemented with 2 mM CaCl2, 10 mM HEPES pH 7.4, 2.5 mM probenecid, plus 1g/L each of glucose and bovine serum albumin (BSA), and seeded in poly-D-lysine coated 96-well black plates with transparent bottom (Costar) at a density of 50,000 cells/0.1 mL per well. Cells were then incubated for 1 h at 37°C with an additional 0.1 mL of buffer containing 4 μM fluo3-AM that was diluted from a stock solution containing 1 mM fluo3-AM dye in DMSO with 10% pluronic acid. After dye loading incubation, plates were washed twice with 100 μL of buffer and refilled with 100 μL of assay buffer. In experiments testing the effect of antagonists, 25 μL of buffer from wells of washed cells were replaced with 25 μL of vehicle or 4× antagonist solution. Pre-incubation of ligand with dye-loaded cells proceeded for 5–30 minutes immediately prior to measurements of agonist-evoked responses. Agonist-evoked Ca^2+ mobilization responses of cell populations were monitored at room temperature simultaneously in all wells of the assay plate using the plate-imaging fluorometric reader FLIPR (MDS Analytical Technologies, Sunnyvale, CA). […] The amplitudes of Ca^2+ transient responses are reported as ΔF/F0, or fold-change in Ca^2+ dye fluorescence relative to the baseline signal ΔF/F0 = (F-F0)/F0 +1 (where ΔF is maximal fluorescence intensity observed following agonist application, F0 = baseline fluorescence, or average intensity measured over the 10 s interval prior to agonist application). Image acquisition rates were varied from 1 Hz during the first 100 s of measurements to 0.5 Hz for the remaining time of the recording.
# Graphs shown reflect either pooled or representative data (see figure legends). For concentration-response analysis, results from Ca^2+ mobilization experiments were plotted as ΔF/F0 vs. agonist concentration and fit to a sigmoidal concentration-response equation using the GraphPad Prism software package. In cases where biphasic concentration-response curves were observed data were fit to a two-site concentration-response model: F(X)=R0+(Rmax−R0)[Fr1/(1+10^X-logEC50,1)+(1−Fr1)/(1+10^X-logEC50,2)] (1) , where X is the logarithm of the agonist concentration, R0 and Rmax are respectively the response minimum and maximum; Fr1 is the response fraction attributable to receptor characterized by half effective concentration of the first response phase (EC50,1), with the reminder response attributable to the second half effective concentration (EC50,2). For radioligand binding experiments, B max values were calculated from maximum binding using the equation B max = (SB × ([…] + [L])/[L]), where SB is the specific binding expressed as fmol per mg of membrane protein, and [L] is the ligand concentration.
smiles,measurement,setting,value
CS(=O)(=O)Nc1c(O)ccc2c1CCCC2C1=NCCN1 (stereo not shown) [A-61603],EC50 IP,HEK293/EBNA cells; HEK293/EBNA untransduced,BQL
same,IP formation,"HEK293/EBNA cells; untransduced cells, data not shown",not detectable
same,EC50 cAMP,β2-AR [1],BQL
same,EC50 p-ERK,β2-AR [2],BQL
same,Ki,β2-AR [3],24 µM
same,EC50,β2-AR [4],0.003 µM
same,"cellular concentration of inositol phosphates IP1, IP2 and IP3",α1A-AR [5],concentration-dependent increases
same,times more potent at inducing p-ERK formation than Ca2+ mobilization,α1A-AR [6]; α1A-AR transduced HEK-293/EBNA,~4 times
same,"cellular levels of inositol phosphates IP1, IP2 and IP3",α1A-AR [7],concentration-dependent increases
same,translocation of β-arrestin-1 / β-arrestin-2,α1A-AR [8],did not induce significant translocation
COc1cc2ncnc(Nc3cccc(Cl)c3)c2cc1OC [AG1478],effect of EGFR inhibition on Iso induced α1A-AR stimulation of ERK1/2,α1A-AR [6]; data not shown,not affected
Cc1ccc(OCC(O)C(C)NC(C)C)c2c1CCC2 (stereo not shown) [ICI 118551],attenuation of responses to high Iso concentrations,α1A-AR [9]; ICI 118551 at 10 nM,~50%
same,effect of antagonist on Iso-evoked Ca2+ response,"α1A-AR [9]; RS100329 10 nM, ICI 118551 10 nM, atenolol 1 μM",abolished responses to low Iso concentrations
